Experimental data published in the NIST ThermoML archive (doi:10.1016/j.jct.2017.07.016).

Experiment: xn = mol fraction of the nth substance listed
Conditions: 96.7 kPa, Liquid; for viscosity: Capillary tube (Ostwald / Ubbelohde) method; for mass density: Vibrating tube method

CCCCCCn1cc[n+](C)c1.[Cl-] [1-hexyl-3-methylimidazolium chloride] + c1ccncc1
Conditions | mass density [kg/m3] | viscosity [mPa·s]
303.15 K, x1 = 0.145 | 1000.09 | 3.442
303.15 K, x1 = 0.281 | 1013.46 | 12.9
303.15 K, x1 = 0.369 | 1019.3 | 27.09
303.15 K, x1 = 0.477 | 1025.04 | 89.47
303.15 K, x1 = 0.608 | 1029.07 | 266.74
303.15 K, x1 = 0.778 | 1033.09 | 1015.3
303.15 K, x1 = 0.877 | 1034.58 | 1617.5
303.15 K, x1 = 1 | 1036.07 | 5718.5
308.15 K, x1 = 0.145 | 995.92 | 3.081
308.15 K, x1 = 0.281 | 1009.71 | 11.03
308.15 K, x1 = 0.369 | 1015.8 | 22.93
308.15 K, x1 = 0.477 | 1021.74 | 68.74
308.15 K, x1 = 0.608 | 1025.91 | 192.89
308.15 K, x1 = 0.778 | 1030.09 | 686.42
308.15 K, x1 = 0.877 | 1031.66 | 1126
308.15 K, x1 = 1 | 1033.22 | 3430.8
313.15 K, x1 = 0.145 | 991.76 | 2.785
313.15 K, x1 = 0.281 | 1006 | 9.532
313.15 K, x1 = 0.369 | 1012.3 | 19.12
313.15 K, x1 = 0.477 | 1018.45 | 53.91
313.15 K, x1 = 0.608 | 1022.78 | 144.2
313.15 K, x1 = 0.778 | 1027.11 | 476.57
313.15 K, x1 = 0.877 | 1028.74 | 773.43
313.15 K, x1 = 1 | 1030.38 | 2146.1
318.15 K, x1 = 0.145 | 987.59 | 2.533
318.15 K, x1 = 0.281 | 1002.31 | 8.293
318.15 K, x1 = 0.369 | 1008.82 | 16.07
318.15 K, x1 = 0.477 | 1015.17 | 43.07
318.15 K, x1 = 0.608 | 1019.67 | 109.94
318.15 K, x1 = 0.778 | 1024.17 | 341.19
318.15 K, x1 = 0.877 | 1025.86 | 528.89
318.15 K, x1 = 1 | 1027.56 | 1390.4
323.15 K, x1 = 0.145 | 983.43 | 2.307
323.15 K, x1 = 0.281 | 998.61 | 7.283
323.15 K, x1 = 0.369 | 1005.33 | 13.71
323.15 K, x1 = 0.477 | 1011.9 | 35.05
323.15 K, x1 = 0.608 | 1016.57 | 85.19
323.15 K, x1 = 0.778 | 1021.24 | 249.82
323.15 K, x1 = 0.877 | 1022.99 | 376.53
323.15 K, x1 = 1 | 1024.75 | 928.1
328.15 K, x1 = 0.145 | 979.27 | 2.128
328.15 K, x1 = 0.281 | 994.88 | 6.442
328.15 K, x1 = 0.369 | 1001.86 | 11.78
328.15 K, x1 = 0.477 | 1008.64 | 28.97
328.15 K, x1 = 0.608 | 1013.48 | 67.45
328.15 K, x1 = 0.778 | 1018.31 | 185.55
328.15 K, x1 = 0.877 | 1020.12 | 273.63
328.15 K, x1 = 1 | 1021.92 | 638.79
333.15 K, x1 = 0.145 | 975.09 | 1.956
333.15 K, x1 = 0.281 | 991.21 | 5.738
333.15 K, x1 = 0.369 | 998.39 | 10.23
333.15 K, x1 = 0.477 | 1005.4 | 24.13
333.15 K, x1 = 0.608 | 1010.39 | 53.7
333.15 K, x1 = 0.778 | 1015.38 | 141.51
333.15 K, x1 = 0.877 | 1017.26 | 203.81
333.15 K, x1 = 1 | 1019.13 | 453.59
338.15 K, x1 = 0.145 | 970.94 | 1.793
338.15 K, x1 = 0.281 | 987.55 | 5.141
338.15 K, x1 = 0.369 | 994.92 | 8.972
338.15 K, x1 = 0.477 | 1002.17 | 20.39
338.15 K, x1 = 0.608 | 1007.32 | 43.75
338.15 K, x1 = 0.778 | 1012.47 | 109.4
338.15 K, x1 = 0.877 | 1014.43 | 154.83
338.15 K, x1 = 1 | 1016.38 | 327.52
343.15 K, x1 = 0.145 | 966.81 | 1.686
343.15 K, x1 = 0.281 | 983.89 | 4.636
343.15 K, x1 = 0.369 | 991.46 | 7.907
343.15 K, x1 = 0.477 | 998.94 | 17.36
343.15 K, x1 = 0.608 | 1004.24 | 35.95
343.15 K, x1 = 0.778 | 1009.55 | 86.53
343.15 K, x1 = 0.877 | 1011.6 | 120.81
343.15 K, x1 = 1 | 1013.65 | 243.04
348.15 K, x1 = 0.145 | 962.62 | 1.57
348.15 K, x1 = 0.281 | 980.23 | 4.198
348.15 K, x1 = 0.369 | 988.01 | 6.978
348.15 K, x1 = 0.477 | 995.69 | 14.96
348.15 K, x1 = 0.608 | 1001.17 | 30.11
348.15 K, x1 = 0.778 | 1006.66 | 68.87
348.15 K, x1 = 0.877 | 1008.78 | 94.01
348.15 K, x1 = 1 | 1010.91 | 183.45
353.15 K, x1 = 0.145 | 958.42 | 1.451
353.15 K, x1 = 0.281 | 976.57 | 3.822
353.15 K, x1 = 0.369 | 984.56 | 6.279
353.15 K, x1 = 0.477 | 992.4 | 13
353.15 K, x1 = 0.608 | 998.08 | 25.29
353.15 K, x1 = 0.778 | 1003.77 | 56.47
353.15 K, x1 = 0.877 | 1005.97 | 75.17
353.15 K, x1 = 1 | 1008.18 | 140.06
